Test results: ChEMBL document CHEMBL1629541, “Synthesis and structure-activity relationships of aza- and diazabiphenyl analogues of the antitubercular drug (6S)-2-nitro-6-{[4-(trifluoromethoxy)benzyl]oxy}-6,7-dihydro-5H-imidazo[2,1-b][1,3]oxazine (PA-824)” (J Med Chem, 2010)
Values after ≈ are worked out from the molar mass of the structure shown.

How the values were obtained:
physchem [1] = settings: water, pH 7
Description: Solubility of the compound in water at pH 7.0 by HPLC

[2] = system: Mycobacterium tuberculosis; assay: microbe, parasite or virus in culture; settings: H37Rv
[3] = system: Mycobacterium tuberculosis; assay: microbe, parasite or virus in culture; settings: H37Rv; remark: listed apart in the source
Description: Antitubercular activity against Mycobacterium tuberculosis H37Rv by LORA method

[4] = AUC (0-infinity) in CD1 mouse plasma at 40 mg/kg, po administered as single dose; format: ADME, organism-based; parameters: time infinity, dose 40 mg/kg, route oral
[5] = Cmax in CD1 mouse plasma at 40 mg/kg, po administered as single dose; format: ADME, organism-based; parameters: dose 40 mg/kg, route oral
[6] = Half life in CD1 mouse plasma at 40 mg/kg, po administered as single dose; format: ADME, organism-based; parameters: dose 40 mg/kg, route oral
[7] = AUC (0-infinity) in CD1 mouse lung at 40 mg/kg, po administered as single dose; format: ADME, organism-based; parameters: time infinity, dose 40 mg/kg, route oral
[8] = Cmax in CD1 mouse lung at 40 mg/kg, po administered as single dose; format: ADME, organism-based; parameters: dose 40 mg/kg, route oral
[9] = Half life in CD1 mouse lung at 40 mg/kg, po administered as single dose; format: ADME, organism-based; parameters: dose 40 mg/kg, route oral
[10] = Thermodynamic solubility in aqueous buffer at pH 1 at 20 degC by HPLC; format: physicochemical; settings: aqueous buffer
[11] = Thermodynamic solubility in aqueous buffer at pH 7.4 at 20 degC by HPLC; format: physicochemical
physchem [12] = settings: water, pH 1
Description: Solubility of the compound in water at pH 1.0 by HPLC

in vitro [13] = settings: human, liver microsomes
Description: Metabolic stability in human liver microsomes assessed as compound remaining after 1 hr

in vitro [14] = settings: CD1, mouse, liver microsomes
Description: Metabolic stability in CD1 mouse liver microsomes assessed as compound remaining after 1 hr

Compound | solubility (physchem [1]) [µg/mL] | MIC [2] [µM] | MIC [3] [µM] | further results
N#Cc1ccc(-c2ccc(CO[C@@H]3COc4nc([N+](=O)[O-])cn4C3)nn2)cc1 | 22 (≈ 58.1 µM) | 0.36 (≈ 0.136 µg/mL) | 13 (≈ 4.92 µg/mL) | –
O=[N+]([O-])c1cn2c(n1)OC[C@@H](OCc1ccc(-c3ccc(F)cc3)nn1)C2 | 8.3 (≈ 22.4 µM) | 0.19 (≈ 0.0706 µg/mL) | 5.6 (≈ 2.08 µg/mL) | –
O=[N+]([O-])c1cn2c(n1)OC[C@@H](OCc1ccc(-c3ccc(OC(F)(F)F)cc3)nn1)C2 | – | 0.075 (≈ 0.0328 µg/mL) | 1.7 (≈ 0.743 µg/mL) | AUC(0-inf) [4]: 52 µg·h/mL; Cmax [5]: 3600 ng/mL; half-life [6]: 2.9 h; AUC(0-inf) [7]: 94 µg·h/mL; Cmax [8]: 7000 ng/mL; half-life [9]: 3.4 h; solubility thermodynamic [10]: 10 µg/mL (≈ 22.9 µM); solubility thermodynamic [11]: 3 µg/mL (≈ 6.86 µM); solubility (physchem [12]): 31 µg/mL (≈ 70.9 µM); remaining at 1 h (in vitro [13]): 94%; remaining at 1 h (in vitro [14]): 92%
O=[N+]([O-])c1cn2c(n1)OC[C@@H](OCc1ccc(-c3ccc(OC(F)F)cc3)nn1)C2 | 1.3 (≈ 3.1 µM) | 0.17 (≈ 0.0713 µg/mL) | 7.5 (≈ 3.15 µg/mL) | –
COc1ccc(-c2ccc(CO[C@@H]3COc4nc([N+](=O)[O-])cn4C3)nn2)cc1F | 6.8 (≈ 16.9 µM) | 0.25 (≈ 0.1 µg/mL) | 6.6 (≈ 2.65 µg/mL) | –
O=[N+]([O-])c1cn2c(n1)OC[C@@H](OCc1ccc(-c3ccc(C(F)(F)F)nc3)nn1)C2 | 12 (≈ 28.4 µM) | 0.55 (≈ 0.232 µg/mL) | 14 (≈ 5.91 µg/mL) | –
COc1ccc(-c2ccc(CO[C@@H]3COc4nc([N+](=O)[O-])cn4C3)nn2)cn1 | 34 (≈ 88.5 µM) | 0.72 (≈ 0.277 µg/mL) | 20 (≈ 7.69 µg/mL) | –
O=[N+]([O-])c1cn2c(n1)OC[C@@H](OCc1cnc(-c3ccc(C(F)(F)F)cc3)cn1)C2 | 0.84 (≈ 1.99 µM) | 0.08 (≈ 0.0337 µg/mL) | 0.97 (≈ 0.409 µg/mL) | –
O=[N+]([O-])c1cn2c(n1)OC[C@@H](OCc1cnc(-c3ccc(F)cc3)cn1)C2 | 8.9 (≈ 24 µM) | 0.085 (≈ 0.0316 µg/mL) | 2 (≈ 0.743 µg/mL) | –
O=[N+]([O-])c1cn2c(n1)OC[C@@H](OCc1cnc(-c3ccc(OC(F)F)cc3)cn1)C2 | 5 (≈ 11.9 µM) | 0.2 (≈ 0.0839 µg/mL) | 1.3 (≈ 0.545 µg/mL) | –
O=[N+]([O-])c1cn2c(n1)OC[C@@H](OCc1cnc(-c3ccc(C(F)(F)F)nc3)cn1)C2 | 27 (≈ 63.9 µM) | 0.33 (≈ 0.139 µg/mL) | 3.7 (≈ 1.56 µg/mL) | –
O=[N+]([O-])c1cn2c(n1)OC[C@@H](OCc1ncc(-c3ccc(C(F)(F)F)cc3)cn1)C2 | 2.7 (≈ 6.41 µM) | 0.06 (≈ 0.0253 µg/mL) | 3.5 (≈ 1.47 µg/mL) | –
O=[N+]([O-])c1cn2c(n1)OC[C@@H](OCc1ncc(-c3ccc(F)cc3)cn1)C2 | 50 (≈ 135 µM) | 0.13 (≈ 0.0483 µg/mL) | 12 (≈ 4.46 µg/mL) | –
O=[N+]([O-])c1cn2c(n1)OC[C@@H](OCc1ncc(-c3ccc(OC(F)(F)F)cc3)cn1)C2 | – | 0.11 (≈ 0.0481 µg/mL) | 1.9 (≈ 0.831 µg/mL) | solubility (physchem [12]): 5.1 µg/mL (≈ 11.7 µM); remaining at 1 h (in vitro [13]): 92%; remaining at 1 h (in vitro [14]): 87%
O=[N+]([O-])c1cn2c(n1)OC[C@@H](OCc1ncc(-c3ccc(OC(F)F)cc3)cn1)C2 | 7.8 (≈ 18.6 µM) | 0.12 (≈ 0.0503 µg/mL) | 7.4 (≈ 3.1 µg/mL) | –
O=[N+]([O-])c1cn2c(n1)OC[C@@H](OCc1ncc(-c3ccc(C(F)(F)F)nc3)cn1)C2 | 85 (≈ 201 µM) | 0.28 (≈ 0.118 µg/mL) | 14 (≈ 5.91 µg/mL) | –
O=[N+]([O-])c1cn2c(n1)OC[C@@H](OCc1cnc(-c3ccc(OC(F)F)cc3)nc1)C2 | 1.1 (≈ 2.62 µM) | 0.13 (≈ 0.0545 µg/mL) | 4.4 (≈ 1.85 µg/mL) | –
O=[N+]([O-])c1cn2c(n1)OC[C@@H](OCc1ccc(-c3ncc(C(F)(F)F)cc3Cl)cc1)C2 | 3.3 (≈ 7.26 µM) | 0.025 (≈ 0.0114 µg/mL) | 1 (≈ 0.455 µg/mL) | solubility (physchem [12]): 2 µg/mL (≈ 4.4 µM); remaining at 1 h (in vitro [13]): 86%; remaining at 1 h (in vitro [14]): 80%
O=[N+]([O-])c1cn2c(n1)OC[C@@H](OCc1ccc(-c3ccc(F)cn3)cc1)C2 | – | 0.035 (≈ 0.013 µg/mL) | 1.3 (≈ 0.481 µg/mL) | solubility (physchem [12]): 275 µg/mL (≈ 743 µM); remaining at 1 h (in vitro [13]): 83%; remaining at 1 h (in vitro [14]): 61%
O=[N+]([O-])c1cn2c(n1)OC[C@@H](OCc1ccc(-c3ccc(F)nc3)cc1)C2 | 8 (≈ 21.6 µM) | 0.095 (≈ 0.0352 µg/mL) | 2.1 (≈ 0.778 µg/mL) | solubility (physchem [12]): 10 µg/mL (≈ 27 µM); remaining at 1 h (in vitro [13]): 88%; remaining at 1 h (in vitro [14]): 79%
O=[N+]([O-])c1cn2c(n1)OC[C@@H](OCc1ccc(-c3ccc(OC(F)F)nc3)cc1)C2 | 3.2 (≈ 7.65 µM) | 0.045 (≈ 0.0188 µg/mL) | 0.66 (≈ 0.276 µg/mL) | remaining at 1 h (in vitro [13]): 95%; remaining at 1 h (in vitro [14]): 75%
O=[N+]([O-])c1cn2c(n1)OC[C@@H](OCc1ccc(-c3ccnc(F)c3)cc1)C2 | 14 (≈ 37.8 µM) | 0.23 (≈ 0.0852 µg/mL) | 1.4 (≈ 0.518 µg/mL) | solubility (physchem [12]): 15 µg/mL (≈ 40.5 µM); remaining at 1 h (in vitro [13]): 93%; remaining at 1 h (in vitro [14]): 86%
O=[N+]([O-])c1cn2c(n1)OC[C@@H](OCc1ccc(-c3ccc(OC(F)(F)F)cc3)cc1)C2 | – | – | – | AUC(0-inf) [4]: 198 µg·h/mL; Cmax [5]: 7400 ng/mL; AUC(0-inf) [7]: 218 µg·h/mL; Cmax [8]: 9000 ng/mL; half-life [9]: 13 h; solubility thermodynamic [10]: < 0.1 µg/mL; solubility thermodynamic [11]: < 0.1 µg/mL; solubility (physchem [12]): 1.1 µg/mL (≈ 2.53 µM)
O=[N+]([O-])c1cn2c(n1)OC[C@@H](OCc1ccc(OC(F)(F)F)cc1)C2 [PRETOMANID] | – | – | – | solubility thermodynamic [10]: 11 µg/mL (≈ 30.6 µM)
